Our source for the IC50 values is patent publication US12692254B2, “Benzimidazole inhibitors of PAD enzymes” (BRISTOL-MYERS SQUIBB COMPANY, priority 2018, dated 2026).

In general, IC50 refers to the point on the concentration scale where inhibition reaches its midpoint.

This experiment concerns the target human PAD4 (hPAD4) (Homo sapiens, UniProt Q9UM07). Kind of experiment: RFMS human PAD4 functional assay (rapid-fire mass spectrum). The class given is biochemical. The note with it: 5 nM hPAD4 enzyme, 250 μM BAEE, 50 μM Calcium; 30 min preincubation, 90 min reaction at 37° C. The method, boiled down:
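PAD4 (10 nM) preincubated 30 min with compound (top final 50 μM), then BAEE substrate added in pH 7.5 HEPES buffer with DTT, 50 μM calcium, TPEN; 90 min at 37° C. After TCA quench, citrulline derivatized with phenyl glyoxal (4 mM final, 30 min, 37° C) and quantified by RapidFire MS against internal standard.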

Chain of human PAD4 (hPAD4) (Q9UM07 whole entry): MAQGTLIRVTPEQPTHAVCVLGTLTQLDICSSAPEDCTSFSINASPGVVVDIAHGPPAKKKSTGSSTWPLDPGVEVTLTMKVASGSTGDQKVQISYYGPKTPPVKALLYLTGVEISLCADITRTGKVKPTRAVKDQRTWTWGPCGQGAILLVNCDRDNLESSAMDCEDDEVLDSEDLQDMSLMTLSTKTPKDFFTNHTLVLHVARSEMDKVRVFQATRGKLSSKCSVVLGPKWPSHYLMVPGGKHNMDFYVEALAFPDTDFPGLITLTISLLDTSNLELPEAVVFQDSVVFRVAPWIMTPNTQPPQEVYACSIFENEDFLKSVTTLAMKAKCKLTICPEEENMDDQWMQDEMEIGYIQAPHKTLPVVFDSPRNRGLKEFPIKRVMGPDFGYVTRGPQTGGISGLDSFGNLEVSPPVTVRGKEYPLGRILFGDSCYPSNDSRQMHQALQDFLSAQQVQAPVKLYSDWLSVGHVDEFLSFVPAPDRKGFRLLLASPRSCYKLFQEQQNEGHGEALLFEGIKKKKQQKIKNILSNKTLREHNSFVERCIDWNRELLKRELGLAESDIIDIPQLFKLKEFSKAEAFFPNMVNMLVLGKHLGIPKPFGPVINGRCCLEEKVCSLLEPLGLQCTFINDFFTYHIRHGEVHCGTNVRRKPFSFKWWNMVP

Take `COc1cc(C(=O)N2CC3CCC2[C@@H]3N)cc2nc(-c3cc4cccnc4n3CC3CC3)n(Cc3cnn(-c4cc(F)cnc4O)c3)c12` (stereo partly drawn) [Example 380, 3-[4-({5-[(7R)-7-amino-2-azabicyclo[2.2.1]heptane-2-carbonyl]-2-[1-(cyclopropylmethyl)-1H-pyrrolo[2,3-b]pyridin-2-yl]-7-methoxy-1H-1,3-benzodiazol-1-yl)methyl}-1H-pyrazol-1-yl]-5-fluoropyridin-2-ol]: the IC50 came to 37 nM.
The value for `COc1cc(C(=O)N2C[C@H](N)C[C@@H](F)C2)cc2nc(-c3cc4cccnc4n3CC3CC3)n(Cc3cnn(-c4cnccn4)c3)c12` [Example 397, (3R,5R)-1-{2-[1-(cyclopropylmethyl)-1H-pyrrolo[2,3-b]pyridin-2-yl]-7-methoxy-1-{[1-(pyrazin-2-yl)-1H-pyrazol-4-yl]methyl}-1H-1,3-benzodiazole-5-carbonyl}-5-fluoropiperidin-3-amine] was 53 nM; that for `COc1cc(C(=O)N2C[C@H](N)C[C@@H](F)C2)cc2nc(-c3cc4ccccc4n3CC3CC3)n(Cc3ccncc3)c12` [Example 287, (3R,5R)-1-{2-[1-(cyclopropylmethyl)-1H-indol-2-yl]-7-methoxy-1-[(pyridin-4-yl)methyl]-1H-1,3-benzodiazole-5-carbonyl}-5-fluoropiperidin-3-amine] was 1230 nM.
For the molecule `COc1cc(C(=O)N2CC3CCC2[C@@H]3N)cc2nc(-c3cc4ccccc4n3CC3CC3)n(CC3CN(C(=O)c4cncnc4)C3)c12` (stereo partly drawn) [Example 443, (7R)-2-{2-[1-(cyclopropylmethyl)-1H-indol-2-yl]-7-methoxy-1-{[1-(pyrimidine-5-carbonyl)azetidin-3-yl]methyl}-1H-1,3-benzodiazole-5-carbonyl}-2-azabicyclo[2.2.1]heptan-7-amine], the half-maximal inhibitory concentration (IC50) is 42 nM.
The value for `COc1cc(C(=O)N2CC3CCC2[C@@H]3N)cc2nc(-c3cc4ccccc4n3CC3CC3)n(Cc3nc[nH]n3)c12` (stereo partly drawn) [Example 510, (7R)-2-{2-[1-(cyclopropylmethyl)-1H-indol-2-yl]-7-methoxy-1-[(1H-1,2,4-triazol-3-yl)methyl]-1H-1,3-benzodiazole-5-carbonyl}-2-azabicyclo[2.2.1]heptan-7-amine] was 326 nM; that for `Cn1cc(Cn2c(-c3cc4ccccc4n3CC3CC3)nc3cc(C(=O)N4CC5CCC4[C@@H]5N)cc(Cl)c32)cn1` (stereo partly drawn) [Example 484, (7R)-2-{7-chloro-2-[1-(cyclopropylmethyl)-1H-indol-2-yl]-1-[(1-methyl-1H-pyrazol-4-yl)methyl]-1H-1,3-benzodiazole-5-carbonyl}-2-azabicyclo[2.2.1]heptan-7-amine] was 30 nM.
The value for `COc1cc(C(=O)N2C[C@H]3CC[C@@H]2[C@@H]3N)cc2nc(-c3cc4cccnc4n3CC3CC3)n(C3CN(C(=O)c4ccnc(F)c4)C3)c12` [Example 193, (1R,4R,7R)-2-{2-[1-(cyclopropylmethyl)-1H-pyrrolo[2,3-b]pyridin-2-yl]-1-[1-(2-fluoropyridine-4-carbonyl)azetidin-3-yl]-7-methoxy-1H-1,3-benzodiazole-5-carbonyl}-2-azabicyclo[2.2.1]heptan-7-amine] was 2720 nM.
The value for `COc1cc(C(=O)N2C[C@H]3CC[C@@H]2[C@@H]3N)cc2nc(-c3cc4cccnc4n3CC3CC3)n(CC3CN(c4cncnc4C#N)C3)c12` [Example 52, 5-[3-({5-[(1R,4R,7R)-7-amino-2-azabicyclo[2.2.1]heptane-2-carbonyl]-2-[1-(cyclopropylmethyl)-1H-pyrrolo[2,3-b]pyridin-2-yl]-7-methoxy-1H-1,3-benzodiazol-1-yl}methyl)azetidin-1-yl]pyrimidine-4-carbonitrile] was 156 nM; that for `COc1cc(C(=O)N2CC3CCC2[C@@H]3N)cc2nc(-c3cc4cccnc4n3CC3CC3)n(Cc3cc(C)nn3C)c12` (stereo partly drawn) [Example 494, (7R)-2-{2-[1-(cyclopropylmethyl)-1H-pyrrolo[2,3-b]pyridin-2-yl]-1-[(1,3-dimethyl-1H-pyrazol-5-yl)methyl]-7-methoxy-1H-1,3-benzodiazole-5-carbonyl}-2-azabicyclo[2.2.1]heptan-7-amine] was 86 nM.
Consider `COc1cc(C(=O)N2C[C@H]3CC[C@@H]2[C@@H]3N)cc2nc(-c3cc4cccnc4n3C)n(CC3CN(c4ncccn4)C3)c12` [Example 83, (1R,4R,7R)-2-(7-methoxy-2-{1-methyl-1H-pyrrolo[2,3-b]pyridin-2-yl}-1-{[1-(pyrimidin-2-yl)azetidin-3-yl]methyl}-1H-1,3-benzodiazole-5-carbonyl)-2-azabicyclo[2.2.1]heptan-7-amine], for which the concentration for half-maximal inhibition (IC50) worked out at 440 nM.
The value for `Cc1cc(C(=O)N2CC3CCC2[C@@H]3N)cc2nc(-c3cc4ccccc4n3CC3CC3)n(CC3CN(C(=O)c4ccccc4)C3)c12` (stereo partly drawn) [Example 450, (7R)-2-{1-[(1-benzoylazetidin-3-yl)methyl]-2-[1-(cyclopropylmethyl)-1H-indol-2-yl]-7-methyl-1H-1,3-benzodiazole-5-carbonyl}-2-azabicyclo[2.2.1]heptan-7-amine] was 46 nM.
The value for `COc1cc(C(=O)N2C[C@H](N)C[C@@H](F)C2)cc2nc(-c3cc4ccccc4n3CC3CC3)n(Cc3cnn(C)c3)c12` [Example 257, (3R,5R)-1-{2-[1-(cyclopropylmethyl)-1H-indol-2-yl]-7-methoxy-1-[(1-methyl-1H-pyrazol-4-yl)methyl]-1H-1,3-benzodiazole-5-carbonyl}-5-fluoropiperidin-3-amine] was 41 nM; that for `COc1ncccc1-n1cc(Cn2c(-c3cc4ccccc4n3CC3CC3)nc3cc(C(=O)N4CC5CCC4[C@@H]5N)cc(OC)c32)cn1` (stereo partly drawn) [Example 403, (7R)-2-{2-[1-(cyclopropylmethyl)-1H-indol-2-yl]-7-methoxy-1-{[1-(2-methoxypyridin-3-yl)-1H-pyrazol-4-yl]methyl}-1H-1,3-benzodiazole-5-carbonyl)-2-azabicyclo[2.2.1]heptan-7-amine] was 66 nM; that for `COc1cc(C(=O)N2C[C@H](N)C[C@@H](F)C2)cc2nc(-c3cc4ccccc4n3CC3CC3)n(Cc3cn(C)nc3C)c12` [Example 512, (3R,5R)-1-{2-[1-(cyclopropylmethyl)-1H-indol-2-yl]-1-[(1,3-dimethyl-1H-pyrazol-4-yl)methyl]-7-methoxy-1H-1,3-benzodiazole-5-carbonyl}-5-fluoropiperidin-3-amine] was 373 nM.
To `COc1cc(C(=O)N2C[C@H]3CC[C@@H]2[C@@H]3N)cc2nc(-c3cc4cccnc4n3CC3CC3)n(CCNS(C)(=O)=O)c12` [Example 286, N-(2-{5-[(1R,4R,7R)-7-amino-2-azabicyclo[2.2.1]heptane-2-carbonyl]-2-[1-(cyclopropylmethyl)-1H-pyrrolo[2,3-b]pyridin-2-yl]-7-methoxy-1H-1,3-benzodiazol-1-yl}ethyl)methanesulfonamide] belongs 1190 nM; to `COc1ccc(C(=O)N2CC(Cn3c(-c4cc5ccccc5n4CC4CC4)nc4cc(C(=O)N5C[C@H]6CC[C@@H]5[C@@H]6N)cc(OC)c43)C2)cc1` [Example 153, (1R,4R,7R)-2-{2-[1-(cyclopropylmethyl)-1H-indol-2-yl]-7-methoxy-1-{[1-(4-methoxybenzoyl)azetidin-3-yl]methyl}-1H-1,3-benzodiazole-5-carbonyl}-2-azabicyclo[2.2.1]heptan-7-amine], 21 nM.
